Data from patent publication US20100119528A1, “Transport of Biologically Active Molecules into a Cell, Mitochondrion, or Nucleus” (priority 2008, published 2010).

Test system: mitochondria
Assay: Peptide-mediated delivery of cargo into cells/mitochondria (fluorescence microscopy)
Format: cell-based
Method: Cells, indicated above, were grown in 8-well culture slides. Peptide/protein complexes were formed in a volume of 100 μl in OptiMEM and incubated for 30 min at 37° C. Approximately 10,000 Cells grown to 75% confluence were overlaid with these preformed complexes. After 30 min of incubation at 37° C., 500 μl of fresh DMEM supplemented with 10% FBS was added to the cells and incubated for an additional 30 min. Cells were then washed with PBS followed by fixing with 4% paraformaldehyde in PBS. Cells were then mounted with flourescent-FragEL Mounting media (Calbiochem) containing DAPI nuclear stain before microscopic analysis. See, e.g., FIGS. 1, 2, 3, and 11.

AAVALLPAVLLALLAPMSVLTPLLLRGLTGSARRLPVPRAKIHSL (AAVALLPAVLLALLAPMSVLTPLLLRGLTGSARRLPVPRAKIHSL) [SEQ ID NO:19]
delivery of Alexa-IgG into mitochondria (FIG. 1, 10 picomol Alexa-tagged IgG, SEQ ID NO:19 from 0 to 2000 pm, orange = red plus green stain): Alexa-IgG complex has entered the mitochondria | delivery of FITC-tagged oligonucleotide (FIG. 2, green = mitochondria stained by FITC complex, blue = DAPI nucleus): demonstrates delivery of FITC-tagged oligonucleotide | delivery of double-stranded circular plasmid (~5.5 kb) into the mitochondria (FIG. 3, DNA stain, small blue dots = mitochondria): delivery of a double-stranded circular plasmid (˜5.5 kb) into the mitochondria
